From patent publication US5795907A, “Gastin and CCK receptor ligands” (James Black Foundation Limited, priority 1994, dated 1998)

Columns and labels:
CCKB receptor = biological target: T1, CCKB receptor (Mus musculus, UniProt P56481); experiment: CCKB receptor radioligand binding assay in mouse cortical membranes ([125I]-CCK8S); conditions: [125I]-CCK8S 200 pM, 150 min at 21±3°; for Ki: read-out: CCKB pKi (converted)
T1 construct: The cortex was dissected, weighed and homogenised in 40ml ice-cold buffer; tissue Charles River (supplier of the CD1 mice); host or cells: cerebral cortex membranes of male CD1 mice
T1 sequence (P56481 1-453): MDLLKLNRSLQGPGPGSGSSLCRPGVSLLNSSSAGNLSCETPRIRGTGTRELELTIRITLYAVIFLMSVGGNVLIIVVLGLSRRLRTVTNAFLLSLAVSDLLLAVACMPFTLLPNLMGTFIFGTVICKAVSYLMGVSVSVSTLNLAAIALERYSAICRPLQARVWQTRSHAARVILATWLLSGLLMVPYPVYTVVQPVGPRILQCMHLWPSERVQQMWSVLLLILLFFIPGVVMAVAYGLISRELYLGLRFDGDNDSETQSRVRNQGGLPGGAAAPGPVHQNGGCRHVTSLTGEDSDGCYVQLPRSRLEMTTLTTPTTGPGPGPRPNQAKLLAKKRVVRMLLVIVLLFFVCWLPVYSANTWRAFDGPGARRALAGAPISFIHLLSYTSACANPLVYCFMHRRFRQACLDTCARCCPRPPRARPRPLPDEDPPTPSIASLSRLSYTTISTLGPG
How it was run: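 This was competition binding with tracer [125I]-CCK8S (200 pM solution added), run for 150 min at 21±3° on male CD1 mouse cortex membranes in pH 7.2 HEPES buffer with bacitracin. Filtration then gamma counting gave bound radioactivity. L-365,260 set the non-specific level.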

gastrin = biological target: T2, gastrin (Rattus norvegicus, UniProt P30553); experiment: gastrin antagonist activity in an immature rat stomach assay (pentagastrin-stimulated acid secretion); conditions: cumulative pentagastrin dose-response curves after 60 min with drug; for Kb: read-out: Gastrin pKB (converted)
T2 construct: The stomach was lowered into a jacketed organ bath containing 40 ml of buffered solution; from tissue; host or cells: isolated perfused whole stomach of immature rats (ca. 21 days old)
T2 sequence (P30553 1-452): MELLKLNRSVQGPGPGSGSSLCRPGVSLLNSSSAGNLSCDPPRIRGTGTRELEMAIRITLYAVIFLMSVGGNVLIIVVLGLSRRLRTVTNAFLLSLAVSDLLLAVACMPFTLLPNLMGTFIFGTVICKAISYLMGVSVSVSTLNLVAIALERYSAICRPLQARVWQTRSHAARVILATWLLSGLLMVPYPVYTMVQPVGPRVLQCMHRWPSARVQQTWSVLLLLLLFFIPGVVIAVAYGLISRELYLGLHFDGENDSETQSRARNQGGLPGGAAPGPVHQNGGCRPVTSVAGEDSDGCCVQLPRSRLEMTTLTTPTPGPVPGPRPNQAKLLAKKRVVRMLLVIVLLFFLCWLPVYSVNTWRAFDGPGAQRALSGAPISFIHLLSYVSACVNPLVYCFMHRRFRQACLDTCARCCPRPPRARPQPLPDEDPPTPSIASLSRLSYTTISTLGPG
How it was run: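 Isolated lumen-perfused immature rat stomach (33-50 g, ca. 21 days) in 37° organ bath with 3×10^-8 M 5-methylfurmethide; acid secretion read by pH electrode in perfusate. Compound added to serosal bath after 120 min stabilisation; cumulative pentagastrin dose-response curves begun 60 min later and analysed by the Black et al. method.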

CCKA = biological target: T3, CCKA (Cavia porcellus, UniProt Q63931); experiment: CCKA radioligand binding assay in guinea-pig pancreas membranes ([125I]-CCK8(S)); conditions: PD134,308 present, 150 minutes at 21±3°; for Ki: read-out: CCKA pKi (converted)
T3 construct: The pancreatata were homogenised in 40 ml ice-cold HEPES buffer using a polytron; from tissue; host or cells: pancreas membranes of male Dunkin Hartley guinea-pigs
T3 sequence (Q63931 1-430): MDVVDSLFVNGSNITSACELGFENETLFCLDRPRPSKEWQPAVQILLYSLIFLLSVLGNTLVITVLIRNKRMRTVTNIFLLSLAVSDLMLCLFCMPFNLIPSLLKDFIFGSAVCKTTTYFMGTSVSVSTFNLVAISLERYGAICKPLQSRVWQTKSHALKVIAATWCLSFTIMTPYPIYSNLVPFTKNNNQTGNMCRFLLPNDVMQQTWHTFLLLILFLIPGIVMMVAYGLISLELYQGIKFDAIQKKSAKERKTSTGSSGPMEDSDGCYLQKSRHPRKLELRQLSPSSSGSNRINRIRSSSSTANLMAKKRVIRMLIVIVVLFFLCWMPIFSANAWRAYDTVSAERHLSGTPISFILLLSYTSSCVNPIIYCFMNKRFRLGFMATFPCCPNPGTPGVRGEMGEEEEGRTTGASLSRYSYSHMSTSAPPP
How it was run: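 Competition for [125I]-CCK8(S) (added as […] solution) ran for 150 min at 21±3° in HEPES pH 7.2. Membranes came from male guinea-pig pancreas at 1 mg/ml original wet weight, with 0.375 μM PD134,308 in the suspension. Filter-bound counts were gamma-counted; 100 nM L-364,718 (added solution) defined non-specific binding.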

Ki (CCKB receptor)	Kb (gastrin)	Ki (CCKA)	CCKB pKi (CCKB receptor)	Gastrin pKB (gastrin)	CCKA pKi (CCKA)	SMILES
3160 nM	1580 nM	7940 nM				O=C(O)c1cc2ccccc2cc1C(=O)NCC12CC3CC(CC(C3)C1)C2 [Example 1, 3-(1-adamantanemethylaminocarbonyl)-2-naphthoic acid]
398 nM	200 nM	3160 nM				O=C(NCC12CC3CC(CC(C3)C1)C2)c1cc2ccccc2cc1C(=O)N1CCC[C@@H]1C(=O)O [Example 3, 3-(2R-carboxypyrrolidino-carbonyl)-2-(1-adamantanemethylaminocarbonyl)-naphthalene]
3160 nM	501 nM	3980 nM				O=C(NCC12CC3CC(CC(C3)C1)C2)c1cc2ccccc2cc1C(=O)N1CCC[C@H]1C(=O)O [Example 4, 2-(2S-carboxypyrrolidino-carbonyl)-3-(1-adamantanemethylaminocarbonyl)-naphthalene]
1000 nM	158 nM	6310 nM				C[C@@H](NC(=O)c1cc2ccccc2cc1C(=O)NCC12CC3CC(CC(C3)C1)C2)C(=O)O [Example 5, 2-(1R-carboxyethylamino-carbonyl)-3-(1-adamantanemethylaminocarbonyl)-naphthalene]
1580 nM	398 nM	1580 nM				COC(=O)[C@H]1CCCN1C(=O)c1cc2ccccc2cc1C(=O)NCC12CC3CC(CC(C3)C1)C2 [Example 7, 2-(2R-methoxycarbonylpyrrolidino-carbonyl)-3-(1-adamantanemethylaminocarbonyl)-naphthalene]
5010 nM	1260 nM	1000 nM				COC(=O)[C@@H](C)NC(=O)c1cc2ccccc2cc1C(=O)NCC12CC3CC(CC(C3)C1)C2 [Example 8, 2-(1R-methoxycarbonylethylamino-carbonyl)-3-(1-adamantanemethylaminocarbonyl)-naphthalene]
			5.6	6.2	5.5	C[C@@H](NC(=O)C[C@@H]1CCCN1C(=O)c1cc2ccccc2cc1C(=O)NCC12CC3CC(CC(C3)C1)C2)C(=O)O [Example 16, 2-(2S-(1R-carboxyethylaminocarbonylmethyl)-pyrrolidinocarbonyl)-3-(1-adamantanemethylaminocarbonyl)-naphthalene]

Further lines, the molecule ahead of its results:

SMILES	Ki (CCKB receptor)	Kb (gastrin)	Ki (CCKA)	CCKB pKi (CCKB receptor)	Gastrin pKB (gastrin)	CCKA pKi (CCKA)
O=C(O)c1cc(NC(=O)C(Cc2c(F)c(F)c(F)c(F)c2F)NC(=O)c2cc3[nH]cnc3cc2C(=O)NCC23CC4CC(CC(C4)C2)C3)cc(C(=O)O)c1 (racemic) [Example 136, (±)-5-(1-(3,5-dicarboxyphenylaminocarbonyl)-2-pentafluorophenylethylaminocarbonyl)-6-(1-adamantanemethylaminocarbonyl)-benzimidazole]	1.26 nM	0.316 nM	> 10000 nM			
O=C(O)c1cc(NC(=O)[C@H](Cc2ccccc2)NC(=O)c2cc3cc[nH]c3cc2C(=O)NCC2CCC(O)CC2)cc(C(=O)O)c1 (single isomer, unassigned) [Example 109, 5-(1S-(3,5-dicarboxyphenylaminocarbonyl)-2-phenylethylaminocarbonyl)-6-(4-hydroxycyclohexanemethylaminocarbonyl)-indole]	200 nM	126 nM	> 10000 nM			
COC(=O)[C@H](C)NC(=O)c1cc2ccccc2cc1C(=O)NCC12CC3CC(CC(C3)C1)C2 [Example 2, 2-(1S-methoxycarbonyl-ethylaminocarbonyl)-3-(1-adamantanemethylaminocarbonyl)-naphthalene]	3160 nM	1000 nM	12600 nM			
O=C(O)c1cc(NC(=O)[C@H](Cc2ccccc2)NC(=O)c2cc3ccccc3cc2C(=O)NCC23CC4CC(CC(C4)C2)C3)cc(C(=O)O)c1 [Example 15, 2-(1S-(3,5-dicarboxyphenylaminocarbonyl)-2-phenylethylaminocarbonyl)-3-(1-adamantanemethylaminocarbonyl)-naphthalene]				7.9	8.2	6.1
O=C(O)c1cc(NC(=O)[C@H](Cc2ccccc2)NC(=O)c2cc3cc[nH]c3cc2C(=O)NCC23CC4CC(CC(C4)C2)C3)cc(C(=O)O)c1 [Example 24, 5-(1S-(3,5-dicarboxyphenylaminocarbonyl)-2-phenylethylaminocarbonyl)-6-(1-adamantanemethylaminocarbonyl)-indole]	1.26 nM	0.316 nM	2000 nM			
O=C(O)c1cc(NC(=O)[C@H](Cc2ccccc2)NC(=O)c2cc3[nH]ccc3cc2C(=O)NCC23CC4CC(CC(C4)C2)C3)cc(C(=O)O)c1 [Example 26, 6-(1S-(3,5-dicarboxyphenylaminocarbonyl)-2-phenylethylaminocarbonyl)-5-(1-adamantanemethylaminocarbonyl)-indole]	12.6 nM	0.501 nM	3160 nM			
CC(C)(C)C(=O)OCOC(=O)c1cc(NC(=O)[C@H](Cc2ccccc2)NC(=O)c2cc3cc[nH]c3cc2C(=O)NCC23CC4CC(CC(C4)C2)C3)cc(C(=O)OCOC(=O)C(C)(C)C)c1 [Example 33, 5-(1S-(3,5-dipivaloyloxymethyloxycarbonylphenylaminocarbonyl)-2-phenylethylaminocarbonyl)-6-(1-adamantanemethylaminocarbonyl)-indole]	2510 nM	20 nM	6310 nM			
O=C(NO)c1cc(NC(=O)[C@H](Cc2ccccc2)NC(=O)c2cc3cc[nH]c3cc2C(=O)NCC23CC4CC(CC(C4)C2)C3)cc(C(=O)NO)c1 [Example 34, 5-(1S-(3,5-dihydroxyaminocarbonylphenylaminocarbonyl)-2-phenylethylaminocarbonyl)-6-(1-adamantanemethylaminocarbonyl)-indole]	7.94 nM	2 nM	794 nM			
Cn1ccc2cc(C(=O)NCC34CC5CC(CC(C5)C3)C4)c(C(=O)N[C@@H](Cc3ccccc3)C(=O)Nc3cc(C(=O)O)cc(C(=O)O)c3)cc21 [Example 37, 6-(1S-(3,5-dicarboxyphenylaminocarbonyl)-2-phenylethylaminocarbonyl)-5-(1-adamantanemethylaminocarbonyl)-N-methyl-indole]	3.98 nM	3.98 nM	2510 nM			
CC(=O)n1ccc2cc(C(=O)N[C@@H](Cc3ccccc3)C(=O)Nc3cc(C(=O)O)cc(C(=O)O)c3)c(C(=O)NCC34CC5CC(CC(C5)C3)C4)cc21 [Example 44, 5-(1S-(3,5-dicarboxyphenylaminocarbonyl)-2-phenylethylaminocarbonyl)-6-(1-adamantanemethylaminocarbonyl)-N-acetyl-indole]				8.7	8.7	5.6
